In patent US20050119297A1, “Use of 5HT3 agonists for relaxing the fundus” (priority 1999, published 2005):

Columns and labels:
[1] = tested on: gastric tone in conscious dogs; experiment: Gastric tone measured by an electronic barostat in conscious dogs; assay type: in vivo, beagle dogs; conditions: mean maximal change in gastric volume 1 hour after administration, intragastric pressure 6 mmHg
Experimental: C.1. Gastric Tone Measured by an Electronic Barostat in Conscious Dogs
Gastric tone cannot be measured by manometric methods. Therefore an electronic barostat was used. This allows the study of the physiological pattern and regulation of gastric tone in conscious dogs and the influence of test-compounds on this tone.
The barostat consists of an air injection system which is connected by a double-lumen 14-French polyvinyl tube to an ultrathin flaccid polyethylene bag (maximal volume: ±700 ml). Variations in gastric tone were measured by recording changes in the volume of air within an intragastric bag, maintained at a constant pressure. The barostat maintains a constant pressure (preselected) within a flaccid air-filled bag introduced into the stomach, changing the volume of air within the bag by an electronic feedback system.
Thus, the barostat measures gastric motor activity (contraction or relaxation) as changes in intragastric volume (decrease or increase resp.) at a constant intragastric pressure. The barostat consists of a strain gauge linked by an electronic relay to an air injection-aspiration system. Both the strain gauge and the injection system are connected by means of double-lumen polyvinyl tube to an ultrathin polyethylene bag. A dial in the barostat allows selection of the pressure level to be maintained within the intragastric bag.
Female beagle dogs, weighing 7-17 kg, were trained to stand quietly in Pavlov frames. They were implanted with a gastric cannula under general anaesthesia and aseptic precautions. After a median laparotomy, an incision was made through the gastric wall in longitudinal direction between the greater and the lesser curve, 2 cm above the nerves of Latarjet. The cannula was secured to the gastric wall by means of a double purse string suture and brought out via a stub wound at the left quadrant of the hypochondrium. Dogs were allowed a recovery period of two weeks.
At the beginning of the experiment, the cannula is opened in order to remove any gastric juice or food remnants. If necessary, the stomach is cleansed with 40 to 50 ml lukewarm water. The ultrathin bag of the barostat is positioned into the fundus of the stomach through the gastric cannula. In order to ensure easy unfolding of the intragastric bag during the experiment, a volume of 150-200 ml is injected into the bag by raising the pressure to maximally 14 mm Hg (about 1.87 kPa) very briefly. This procedure is repeated twice.
After a stabilization period of 60 minutes at an intragastric pressure of 6 mmHg (about 0.81 kPa), the test compound was administered subcutaneously, or intraduodenally. […] Table C-1 summarizes the mean maximal change in volume 1 hour after I.D. or S.C. administration of the compound (R)-N-(1-azabicyclo[2.2.2]oct-3-yl)-4,7-dihydro-7-oxothieno[3,2-b]pyridine-6-carboxamide monohydrochloride at test concentrations of 0.63 mg/kg, 0.16 mg/kg and 0.04 mg/kg.

5-HT3 receptor = conditions: canine intestinal smooth muscle; read-out: affinity for the 5-HT3 receptor IC50; cited from earlier work

## Cl.O=C(N[C@H]1CN2CCC1CC2)c1c[nH]c2ccsc2c1=O [(R)-N-(1-azabicyclo[2.2.2]oct-3-yl)-4,7-dihydro-7-oxothieno[3,2-b]pyridine-6-carboxamide monohydrochloride]
[1]; I.D. administration, 0.04 mg/kg
  Maximum change in volume: 57 mL
[1]; I.D. administration, 0.16 mg/kg
  Maximum change in volume: 51 mL
[1]; I.D. administration, 0.63 mg/kg
  Maximum change in volume: 104 mL
[1]; S.C. administration, 0.04 mg/kg
  Maximum change in volume: 127 mL
[1]; S.C. administration, 0.16 mg/kg
  Maximum change in volume: 108 mL
[1]; S.C. administration, 0.63 mg/kg
  Maximum change in volume: 156 mL
5-HT3 receptor
  IC50: 1.3 nM
